{
  "source": "patent US8236984B2",
  "about": "“Compound and use thereof in the treatment of amyloidosis” (Pentraxin Therapeutics Ltd., priority 2007, dated 2012)",
  "key": {"[1]": {"biological_target": "T1, native wild type transthyretin (Homo sapiens, UniProt P02766)", "T1 construct": "isolated from pooled normal human plasma, was obtained from Scipac; purchased Scipac Ltd, Sittingbourne, Kent, UK; host or cells: pooled normal human plasma", "assay": "Gel filtration (Superdex 200) of transthyretin-ligand complexes", "format": "binding", "conditions": "for A280/A330 ratio of main component eluting at 14.4 ml: 2 nanomoles transthyretin incubated 1 h with 1 μl of 4 mM ligand in DMSO, PBS; for dissociation of ligand from the complex during gel filtration: after 100 volume solvent exchanges", "method": "1.3 Gel filtration. Native transthyretin was eluted with either PBS or 150 mM ammonium bicarbonate (pH 7.6) from a Superdex 200 (30×1.0 cm) column, run on an ÅKTA Explorer system, as a UV absorbing peak (A280/A330˜30 to 50:1) with Ve 14.4 ml (FIG. 1). A minor (<5%) higher molecular weight component eluting at 12.5 ml was always seen.\n3.1.1. Binding of 4ajm15 and mds84 by transthyretin. One μl (5.3 nmol) of a concentrated (5.3 mM) solution of 4ajm15 in DMSO was added to 3.8 nmol of transthyretin in 100 μl PBS (1.4 fold molar excess of ligand) and incubated at room temperature for 30 min. The sample was chromatographed on Superdex 200, where the transthyretin-4ajm15 complex eluted at 14.4 ml, with a reduced A280/A330 ratio (˜5:1) consistent with binding. A similar result was obtained with transthyretin and 4ajm15 when chromatography was undertaken in volatile ammonium bicarbonate buffer. A similar result was also obtained when mds84 (2 nmol) was first dried into a tube and then resuspended in 5 μl of DMSO before adding the protein solution. In further experiments, 2 nanomoles of native wild type transthyretin (Scipac) were incubated in 55 μl of PBS for 1 h with either 1 μl DMSO (control) or 1 μl of a 4 mM solution in DMSO of mds84 or 4ajm15. Samples were chromatographed on a Superdex 200 column (30×1 cm) in PBS at 0.5 ml/min, with 0.5 ml fractions collected (FIG. 1). […] The full UV spectra of the main components were determined in each case and were consistent with a transthyretin:ligand ratio of ˜1:0.9."}, "[2]": {"biological_target": "T2, wild type transthyretin isolated from plasma (Homo sapiens, UniProt P02766)", "T2 construct": "Native tetrameric transthyretin was purified from fractionated human plasma; from tissue; host or cells: human plasma", "assay": "Competition with 125I-T4 for binding by pure transthyretin", "conditions": "125 nM transthyretin, trace 125I-T4, pH 8.0, overnight 4° C."}, "[3]": {"biological_target": "T3, L55P variant transthyretin (Homo sapiens, UniProt P02766, L75P)", "assay": "Inhibition of transthyretin aggregation at acidic pH (turbidity at 400 nm)", "format": "biochemical", "method": "3.3.2 Inhibition of transthyretin aggregation by 4ajm15: In pilot experiments, transthyretin aggregates were formed from wild type transthyretin (3.6 μM) after incubation at acidic pH for 3 d at 37° C. (Colon and Kelly, 1992). The efficacy of 4ajm15 as an inhibitor of transthyretin aggregate formation was then compared with other transthyretin ligand compounds. […] After 30 min at 37° C., the pH was adjusted to pH 4.4 (with 0.2 M sodium acetate buffer pH 4.0), and the ˜1 ml mixtures were incubated unstirred for 3 d at 37° C.\nUsing the same method the activities of mds84 and 4ajm15 as inhibitors of the aggregation of both wild type transthyretin and the most aggressively aggregating transthyretin variant, L55P, were evaluated in triplicate with both proteins at 3.6 μM and with one (3.6 μM) or 3 equivalents (10.8 μM) of each ligand. Wild type transthyretin was studied at pH 4.4 and L55P at pH 5.0. […] Mean values and standard deviations are shown in Table 2 and in FIG. 4, where results with 1:1 molar ratio are shown cross hatched and 3:1 molar ratio in open bars."}, "[4]": {"biological_target": "T3, L55P variant transthyretin", "assay": "Mass spectrometric analysis of subunit exchange", "format": "biochemical", "set-up": "made in house", "conditions": "for subunit exchange of L55P transthyretin: in words", "method": "4.2 Mass spectrometric analysis of subunit exchange. Recombinant wild type, L55P and V30M transthyretin variants were biosynthetically labelled with isotopes [^15N] and [^15N, ^13C] as previously described (Keetch C A et al, 2005). Immediately prior to analysis, proteins were buffer exchanged into 20 mM ammonium acetate, pH 7.0 using Micro Biospin columns (Bio-Rad, UK). The subunit composition of transthyretin was monitored as a function of time by incubating an equimolar solution (4.4 μM) of [^15N] and [^15N, ^13C] labelled proteins in the presence of 2-fold molar excess of 4ajm15 in DMSO or 2.5% DMSO alone as a control. Each experiment was carried out in triplicate at room temperature and at 4° C. as well, since it is known that subunit exchange is accelerated at low temperatures. Nanoflow ESMS was performed on a QToF2 instrument (Waters/Micromass UK, Ltd.) modified for high mass operation (Sobott et al, (2002)) and calibrated externally using caesium iodide (100 mg/ml). Each solution, 1.5 μl, was electrosprayed from gold coated borosilicate capillaries prepared in-house as described (Nettleton E J, et al, 1998). To preserve the non-covalent interactions in the transthyretin tetramer, the MS parameters applied were: capillary voltage 1.6 kV, sample cone 160 V, extractor cone 20 V, ion transfer stage pressure 7.0×10 ^−3 mbar, quadrupole analyzer pressure 9.5×10^−4 mbar and ToF analyzer pressure 1.7×10^−6 mbar. Data were processed with MassLynx software (Waters/Micromass UK, Ltd.) and are presented with minimal smoothing and without background subtraction.\nThis most unstable transthyretin variant rapidly undergoes spontaneous and extensive subunit exchange, as illustrated in FIG. 8. FIGS. 9-11 show the effects of decreasing molar ratios of mds84 on inhibition of subunit exchange. […] At lower molar ratios of mds84 some exchange takes place but the transthyretin molecules which bind mds84 are still completely stabilized."}, "wild type transthyretin": {"biological_target": "wild type transthyretin (Homo sapiens, UniProt P02766)", "assay": "Differential scanning calorimetry of transthyretin with ligand", "format": "binding", "set-up": "isolated from pooled normal human plasma, was obtained from Scipac; purchased Scipac Ltd, Sittingbourne, Kent, UK; host or cells: pooled normal human plasma"}, "[5]": {"conditions": "five fold molar excess of ligand"}},
  "data": [
    {"molecule": "O=C(O)c1ccccc1Nc1cc(Cl)c(OCCCCCCCOc2c(Cl)cc(Nc3ccccc3C(=O)O)cc2Cl)c(Cl)c1", "note": "[mds84, 2,2′-(4,4′-(heptane-1,7-diylbis(oxy))bis(3,5-dichloro-4,1-phenylene))bis(azanediyl)dibenzoic acid]", "values": [
      {"measurement": "A280/A330 ratio of main component eluting at 14.4 ml", "setting": "[1]", "value": "~4.6"},
      {"measurement": "dissociation of ligand from the complex during gel filtration", "setting": "[1]", "value": "negligible dissociation"},
      {"measurement": "IC50", "setting": "[2]", "value": "150 ± 25", "unit": "nM"},
      {"measurement": "Aggregation of transthyretin, Mean (1:1)", "setting": "[3]; L55P 3.6 μM, ligand 3.6 μM, pH 5.0", "value": "17 per cent of control with DMSO alone"},
      {"measurement": "Aggregation of transthyretin, Mean (3:1)", "setting": "[3]; L55P 3.6 μM, ligand 10.8 μM, pH 5.0", "value": "9.9 per cent of control with DMSO alone"},
      {"measurement": "ligand bound per mole of transthyretin for complete stabilization", "setting": "[4]; L55P variant, decreasing molar ratios of ligand", "value": "one mole"},
      {"measurement": "subunit exchange of L55P transthyretin", "setting": "[4]", "value": "completely inhibits all subunit exchange"},
      {"measurement": "Tm of wild type transthyretin with the ligand", "setting": "wild type transthyretin; [5]", "value": 107.5, "unit": "°C"},
      {"measurement": "increase in Tm of wild type transthyretin", "setting": "wild type transthyretin; [5]", "value": 6.2, "unit": "°C"}
    ]},
    {"molecule": "O=C(O)c1ccccc1Nc1cc(Cl)c(OCCCCCCCCCCCOc2c(Cl)cc(Nc3ccccc3C(=O)O)cc2Cl)c(Cl)c1", "note": "[4ajm15, 2,2′-(4,4′-(undecane-1,11-diylbis(oxy))bis(3,5-dichloro-4,1-phenylene))bis(azanediyl)dibenzoic acid]", "values": [
      {"measurement": "A280/A330 ratio of main component eluting at 14.4 ml", "setting": "[1]", "value": "~4.6"},
      {"measurement": "dissociation of ligand from the complex during gel filtration", "setting": "[1]", "value": "negligible dissociation"},
      {"measurement": "IC50", "setting": "[2]", "value": "200 ± 70", "unit": "nM"},
      {"measurement": "aggregation of L55P in the presence of ligand", "setting": "[3]; L55P, pH 5.0, results not shown, in words", "value": "identical to those with mds84"},
      {"measurement": "subunit exchange of L55P transthyretin", "setting": "[4]", "value": "Exactly the same effect"},
      {"measurement": "midpoint of thermal denaturation (Tm) in the presence of ligand", "setting": "wild type transthyretin; preliminary DSC, 0.02 mM tetramer, 0.2 mM ligand, PBS pH 7.4, 2% DMSO, transthyretin alone 99.5", "value": 103.6, "unit": "°C"}
    ]}
  ]
}
